Assay results reported in patent publication US20220125791A1, “NOVEL DEVICES” (INTRA-CELLULAR THERAPIES, INC., priority 2019, published 2022).
Where two headings read alike, the source gives them in different places.

Experiment: Compound 1 in plasma and ocular tissue following topical administration
Format: in vivo, male hypertensive New Zealand White Rabbit
Conditions: for AUC(0-t): male, New Zealand White, rabbit, topical or ocular, topical administration, 5% (2-Hydroxypropyl)-β-cyclodextrin in PBS pH 7.4, LC-MS/MS
Protocol: The goal of this study was to determine the presence/absence of Compound 1 in male hypertensive New Zealand White Rabbit plasma and ocular tissue following a topical administration. For the study, Compound 1 was formulated with 5% (2-Hydroxypropyl)-β-cyclodextrin in phosphate-buffered saline pH 7.4 at 60 μg/eye. Plasma, Cornea, Conjunctiva, Aqueous Humor (AH), and Iris Ciliary Body (ICB) samples were collected for analysis of the concentrations of Compound 1 using LC-MS/MS methods.

SMILES: CN1C(=O)c2c(nn(Cc3ccc(-c4ccccn4)cc3)c2Nc2ccccc2)N2C1=N[C@@H]1CCC[C@@H]12 [Compound 1]
- AUC(0-t) (60 μg/eye, aqueous humor, read-out: AUC0-24hr in the aqueous humor): 866 ng·h/mL
- AUC(0-t) (60 μg/eye, plasma, read-out: AUC0-24hr in the plasma): 46.3 ng·h/mL
- availability in ocular tissue (ocular tissue upon topical administration, 60 μg/eye (FIG. 1)): rapid availability
- presence in plasma (plasma, 1 hour after topical administration, 60 μg/eye): present
